This passage reports IC50 and viability results from patent publication US9169241B2, “Quinolinyloxyphenylsulfonamides” (Max-Planck-Gesellschaft Zur Forderung der Wissenschaften …, priority 2009, dated 2015).

Read-outs that look alike come from different tables or passages of the source. A value given as a limit tells only on which side of the number the result lay.

What all share (assay type): cell-based
The subject of assay [1] is C8161. As to the kind of experiment: Cell vitality assay (ATP assay, CellTiter-Glo). To be noted: Homo sapiens; C8161, 72 h; Table IIa; read-out: IC50 ATP-Assay after 72 h C8161. Summed up: (§1)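 IC50s reflect 50% loss of ATP-dependent luminescence versus DMSO control after a 72 h treatment of 1000 cells per well across 0.195–12.5 μM compound.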
A further assay concerns MDA-MB231. As to the kind of experiment: Cell vitality assay (ATP assay, CellTiter-Glo). To be noted: Homo sapiens, MDA-MB-231; MDA-MB231, 72 h; Table IIa; read-out: IC50 ATP-Assay after 72 h MDA-MB231. Summed up: as §1
A general note: In ATP-based viability assays light output follows the ATP content of the culture.

Assay [2] deals with SF763. Nature of the assay: Cell vitality assay (ATP assay, CellTiter-Glo). To be noted: SF763, 72 h; Table IIa; read-out: IC50 ATP-Assay after 72 h SF763. The procedure, abridged: as §1
In assay [3] the test system is U138. Nature of the assay: Cell vitality assay (ATP assay, CellTiter-Glo). To be noted: U138, 72 h; Table IIa; read-out: IC50 ATP-Assay after 72 h U138. The procedure, abridged: as §1
Assay [4] concerns C8161. As to the kind of experiment: Apoptosis assay (Cellomics, nucleus condensation). To be noted: Homo sapiens, Table III, read-out: Apoptosis induction in C8161. The procedure, abridged:
(§2)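 Cells seeded at 5000 per well were stained live with Hoechst 33342, and nuclear condensation was quantified per nucleus by automated fluorescence imaging alongside cell counts. Compound was tested at 12.5, 6.25, 3.125, 1.56, 0.78 and 0.39 μM against a DMSO control, with reads at 24 h and 48 h.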

The test system of another assay is Hs578T. As to the kind of experiment: Apoptosis assay (Cellomics, nucleus condensation). To be noted: Homo sapiens, Hs-578T, Table III, read-out: Apoptosis induction in Hs578T. The procedure, abridged:
as §2

A further assay relates to SF126. As to the kind of experiment: Apoptosis assay (Cellomics, nucleus condensation). To be noted: Homo sapiens, SF-126, Table III, read-out: Apoptosis induction in SF126. Summed up: as §2
Assay [5] concerns SF763. Nature of the assay: Apoptosis assay (Cellomics, nucleus condensation). To be noted: Table III, read-out: Apoptosis induction in SF763. Summed up:
as §2

Another assay relates to U118. As to the kind of experiment: Apoptosis assay (Cellomics, nucleus condensation). To be noted: Table III, read-out: Apoptosis induction in U118. Summed up:
as §2

The subject of assay [6] is U138. Nature of the assay: Apoptosis assay (Cellomics, nucleus condensation). To be noted: Table III, read-out: Apoptosis induction in U138. Summed up:
as §2

The subject of the next assay is cells. Nature of the assay: Boyden chamber migration assay (Table VI). To be noted: Homo sapiens, Hs-578T, 16 h, Hs578T cells; 16 h migration. Summed up: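 Migration read-out is a count of fixed cells on the underside of an […] insert membrane after 16 h. Chemoattractant was medium with 10% FCS in the lower chamber; 20000 cells started in serum-free medium with 0.1% BSA above, and those left on top were removed by swab.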

A further assay has as its system viable cells in culture. As to the kind of experiment: Cell viability assay at 10 μM (CellTiter-Glo, Table VII).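 Also: graded A 0-20%; B 21-40%; C 41-60%; D over 60% viable cells relative to DMSO control.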 To be noted: compound 10 μM, 72 h. Summed up:
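Cells were seeded at 1000 cells/well in 96-well plates in 100 μl culture medium and incubated for 72 h with 10 μM compound or a DMSO control. ATP content, which reflects metabolically active and therefore viable cells, was then determined by CellTiter-Glo luminescence (Promega) per the manufacturer's instructions and expressed relative to the DMSO control.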

The mark [7] stands for this setting: Homo sapiens, HCT-116, HCT116 def, read-out: percentage (%) of viable cells HCT 116def.
The mark [8] stands for this setting: Homo sapiens, HCT-116, HCT116 wt, read-out: percentage (%) of viable cells HCT 116wt.
Where [9] appears, read: Homo sapiens, HT-29, HT29, read-out: percentage (%) of viable cells HT29.
The mark [10] stands for this setting: Homo sapiens, NCI-H358, H358, read-out: percentage (%) of viable cells H358.
[11] abbreviates: Homo sapiens, NCI-H1650, H1650, read-out: percentage (%) of viable cells H1650.
Where [12] appears, read: Homo sapiens, NCI-H1666, H1666, read-out: percentage (%) of viable cells H1666.
Setting [13] is: Homo sapiens, NCI-H1975, H1975, read-out: percentage (%) of viable cells H1975.
[14] abbreviates: Homo sapiens, NCI-H1993, H1993, read-out: percentage (%) of viable cells H1993.
The mark [15] stands for this setting: Homo sapiens, A549, read-out: percentage (%) of viable cells A549.
Setting [16] is: Homo sapiens, HCC827, read-out: percentage (%) of viable cells HCC827.
Setting [17] is: Homo sapiens, SW480, read-out: percentage (%) of viable cells SW480.
The mark [18] stands for this setting: RKO, read-out: percentage (%) of viable cells RKO.

With `COc1cc2c(Oc3ccc(NS(=O)(=O)c4ccc(C)c(F)c4)cc3F)ccnc2cc1OCCCN1CCCC(C)C1` (stereo not shown) [Example 56, 3-Fluoro-N-(3-fluoro-4-{6-methoxy-7-[3-(3-methyl-piperidin-1-yl)-propoxy]-quinolin-4-yloxy}-phenyl)-4-methyl-benzenesulfonamide], the IC50 was not above 12.5 µM with C8161 [1]; 12.5 to 50 µM in the assay with MDA-MB231; not above 12.5 µM in the assay with SF763 [2]; not above 12.5 µM in the assay with U138 [3]; not above 12.5 µM with C8161 [4]; not above 12.5 µM in the assay on Hs578T. For the same compound, the IC50 is not above 12.5 µM with SF126; not above 12.5 µM in the assay with SF763 [5]; not above 12.5 µM in the assay on U118; not above 12.5 µM in the assay with U138 [6]; not above 5 µM in the assay on cells. Further, the viability at 10 µM was in the range of 21 to 40% in the assay with viable cells in culture (setting [7]); 21 to 40% in the assay on viable cells in culture (setting [8]); 0 to 20% in the assay on viable cells in culture (setting [9]); 0 to 20% in the assay on viable cells in culture (setting [10]); 41 to 60% in the assay with viable cells in culture (setting [11]); 21 to 40% in the assay on viable cells in culture (setting [12]). Moreover, the viability at 10 µM was 0 to 20% in the assay with viable cells in culture (setting [13]); 41 to 60% in the assay with viable cells in culture (setting [14]); more than 60% with viable cells in culture (setting [15]); 21 to 40% with viable cells in culture (setting [16]); 0 to 20% with viable cells in culture (setting [17]); 21 to 40% in the assay on viable cells in culture (setting [18]).

On to `COc1cc2c(Oc3ccc(NS(=O)(=O)c4cccc(Oc5ccccc5)c4)cc3F)ccnc2cc1OCCCN1CCCC(C)C1` (stereo not shown) [Example 59, N-(3-Fluoro-4-{6-methoxy-7-[3-(3-methyl-piperidin-1-yl)-propoxy]-quinolin-4-yloxy}-phenyl)-3-phenoxy-benzenesulfonamide], for which the IC50 in the assay with C8161 [1], in the assay on MDA-MB231, in the assay with SF763 [2], with U138 [3], with C8161 [4] and in the assay on Hs578T was not above 12.5 µM throughout. Besides, the IC50 was not above 12.5 µM with SF126; not above 12.5 µM with SF763 [5]; not above 12.5 µM in the assay with U118; not above 12.5 µM in the assay on U138 [6]; not above 5 µM in the assay on cells. The viability at 10 µM is 0 to 20% with viable cells in culture (setting [7]); 0 to 20% in the assay on viable cells in culture (setting [8]); 0 to 20% with viable cells in culture (setting [9]); 21 to 40% with viable cells in culture (setting [10]); more than 60% in the assay on viable cells in culture (setting [11]); 41 to 60% in the assay on viable cells in culture (setting [12]). Moreover, the viability at 10 µM with viable cells in culture (setting [13]) was in the range of 21 to 40%; with viable cells in culture (setting [14]) it was 0 to 20%; in the assay on viable cells in culture (setting [15]) it was 21 to 40%; in the assay with viable cells in culture (setting [16]) it was 21 to 40%; in the assay on viable cells in culture (setting [17]) it was 0 to 20%; in the assay on viable cells in culture (setting [18]), 0 to 20%.

Turning to `COc1cc2c(Oc3ccc(NS(=O)(=O)c4ccc(Cl)s4)cc3F)ccnc2cc1OCCCN1CCCC(C)C1` (stereo not shown) [Example 63, 5-Chloro-thiophene-2-sulfonic acid (3-fluoro-4-{6-methoxy-7-[3-(3-methyl-piperidin-1-yl)-propoxy]-quinolin-4-yloxy}-phenyl)-amide], the IC50 is not above 12.5 µM with C8161 [1]; not above 12.5 µM with MDA-MB231; not above 12.5 µM with SF763 [2]; 12.5 to 50 µM with U138 [3]; not above 12.5 µM in the assay with C8161 [4]; not above 12.5 µM with Hs578T. Also, the IC50 with SF126 was not above 12.5 µM; in the assay with SF763 [5] it was not above 12.5 µM; with U118, not above 12.5 µM; in the assay on U138 [6], not above 12.5 µM; in the assay on cells, not above 5 µM. Further, the viability at 10 µM in the assay with viable cells in culture (setting [7]) was in the range of 21 to 40%; with viable cells in culture (setting [8]) it was 0 to 20%; with viable cells in culture (setting [9]) it was 21 to 40%; in the assay with viable cells in culture (setting [10]), 0 to 20%; in the assay on viable cells in culture (setting [11]), 41 to 60%; in the assay on viable cells in culture (setting [12]) it was 41 to 60%. Further, the viability at 10 µM in the assay with viable cells in culture (setting [13]) is 0 to 20%; with viable cells in culture (setting [14]), 0 to 20%; in the assay with viable cells in culture (setting [15]) it was 21 to 40%; with viable cells in culture (setting [16]) it was 21 to 40%; in the assay on viable cells in culture (setting [17]), 0 to 20%; with viable cells in culture (setting [18]), more than 60%.

For `COc1cc2c(Oc3ccc(NS(=O)(=O)c4cccc(C)c4)cc3F)ccnc2cc1OCCCN1CCCC(C)C1` (stereo not shown) [Example 70, N-(3-Fluoro-4-{6-methoxy-7-[3-(3-methyl-piperidin-1-yl)-propoxy]-quinolin-4-yloxy}-phenyl)-3-methyl-benzenesulfonamide], the IC50 with C8161 [1] was 12.5 to 50 µM; with MDA-MB231, 12.5 to 50 µM; with SF763 [2] it was 12.5 to 50 µM; in the assay with U138 [3] it was not above 12.5 µM; in the assay on C8161 [4], not above 12.5 µM; in the assay with Hs578T, not above 12.5 µM. The IC50 in the assay on SF126 is not above 12.5 µM; with SF763 [5] it was not above 12.5 µM; with U118, not above 12.5 µM; with U138 [6], not above 12.5 µM; with cells it was not above 5 µM. In addition, the viability at 10 µM in the assay on viable cells in culture (setting [7]) was in the range of 21 to 40%; in the assay with viable cells in culture (setting [8]) it was 41 to 60%; in the assay with viable cells in culture (setting [9]), 21 to 40%; in the assay with viable cells in culture (setting [10]), 21 to 40%; with viable cells in culture (setting [11]), 41 to 60%; in the assay with viable cells in culture (setting [12]) it was 21 to 40%. Also, the viability at 10 µM with viable cells in culture (setting [13]) is 0 to 20%; with viable cells in culture (setting [14]), 0 to 20%; with viable cells in culture (setting [15]), 21 to 40%; with viable cells in culture (setting [16]), 21 to 40%; in the assay with viable cells in culture (setting [17]), 21 to 40%; in the assay with viable cells in culture (setting [18]) it was 0 to 20%.

Consider `COc1cc2c(Oc3ccc(NS(=O)(=O)c4ccc(F)c(C#N)c4)cc3F)ccnc2cc1OCCCN1CCCC(C)C1` (stereo not shown) [Example 72, 3-Cyano-4-fluoro-N-(3-fluoro-4-{6-methoxy-7-[3-(3-methyl-piperidin-1-yl)-propoxy]-quinolin-4-yloxy}-phenyl)-benzenesulfonamide], for which the IC50 with C8161 [1] was 12.5 to 50 µM; with MDA-MB231 it was 12.5 to 50 µM; in the assay with SF763 [2], 12.5 to 50 µM; with U138 [3] it was 12.5 to 50 µM; in the assay on C8161 [4] it was not above 12.5 µM; in the assay with Hs578T it was not above 12.5 µM. The IC50 in the assay on SF126 is 12.5 to 50 µM; with SF763 [5], not above 12.5 µM; in the assay on U118 it was not above 12.5 µM; in the assay on U138 [6], 12.5 to 50 µM; with cells it was not above 5 µM. Besides, the viability at 10 µM in the assay with viable cells in culture (setting [7]) was in the range of 41 to 60%; in the assay with viable cells in culture (setting [8]), 21 to 40%; in the assay with viable cells in culture (setting [9]), 0 to 20%; in the assay with viable cells in culture (setting [10]), 21 to 40%; in the assay with viable cells in culture (setting [11]), 41 to 60%; in the assay on viable cells in culture (setting [12]) it was 21 to 40%. The viability at 10 µM in the assay on viable cells in culture (setting [13]) is 41 to 60%; in the assay with viable cells in culture (setting [14]), 0 to 20%; in the assay with viable cells in culture (setting [15]) it was more than 60%; in the assay on viable cells in culture (setting [16]), 41 to 60%; in the assay with viable cells in culture (setting [17]) it was 0 to 20%; in the assay on viable cells in culture (setting [18]), 0 to 20%.
